The source of these data is US20210223248A1 (priority 2018, published 2021).

Where “and” joins values, the source holds several entries; their conditions need not be identical. Equal values may be shown once.

The subject of test [1] is relapsed and/or refractory CD19+ B-ALL. It counts as in vivo, human.
In test [2] the test system is relapsed and/or refractory CD19+ NHL. The note with it: human, in vivo.

In the case of `Nc1nc(F)nc2c1ncn2[C@@H]1O[C@H](CO)[C@@H](O)[C@@H]1O` [Fludarabine, fludarabine], the “Odds Ratio (95% CI) for MRD-negative CR” value in test [1] (univariate, fludarabine added to cyclophosphamide-based lymphodepletion (Y)) is given as 0.50 (0.03-3.31).

With “cyclophosphamide and fludarabine [Cy/Flu]”, in test [2], the “HR (95% CI) for PFS” value is on record as 1.92 (0.99-3.72) and the “HR for PFS” value is 4.266. In test [1] (human, in vivo), the “Estimate, univariate association with Disease-Free Survival” value is reported as 0.2967; the “Estimate, univariate association with Overall Survival” value is on record as 0.4349; the “Exp (Coef) = hazard ratio for DFS” value is on record as 0.2490; the “Exp (−Coef) for DFS” value amounted to 4.0154. Further, in test [1] (human, in vivo), the “Hazard Ratio (95% CI) for DFS” value was 0.2777 (0.1095-0.7042) and 0.2794 (0.1109-0.7042).
